We go through one compound from US7741506B2, “Probe for measuring phytase activity” (Berry & Associates, Inc., priority 2005, dated 2010).

In one series the test system is A. ficuum 3-phytase. Put plainly: 3-phytase assay with HPLC analysis. The series is classed as biochemical. As to the method:
(§1) Referring now to FIGS. 2 through 5, the aforesaid exemplary probe according to the instant invention (compound 2 of FIG. 1) was employed in assays of 3-phytase and 6-phytase activity. The 3-phytase assay consisted of a solution combining A. ficuum 3-phytase (0.27 U) and the penta-ammonium salt of compound 2 (1.2 mM in glycine-HCl buffer 0.2M, pH 2.6, 3 mL). The 3-phytase assay was carried out at 37° C. The 6-phytase assay consisted of a solution combining wheat 6-phytase (0.27 U) and compound 2 (1.2 mM in sodium acetate buffer, 0.2M, pH 5.2, 3 mL). The 6-phytase assay was carried out at 50° C.
(§2) Control assays were similarly prepared but lacked the phytase enzyme. Assays were carried out in tinted vials, capped with septa and stirred continuously. Aliquot samples (30 μL) were taken and diluted with methanol-water (58:42, 970 μL) for HPLC analysis over the 24-hour time course of the assay.
(§3) Mobile phase (pH 4.0) was prepared by mixing methanol (580 mL), water (420 mL), tetrabutylammonium hydroxide (8 mL), 5N aqueous sulfuric acid (0.5 mL), and 6.4 mM aqueous phytic acid (0.2 mL). HPLC analysis was performed on an analytical HPLC system using a reversed phase column (Hamilton PRP-1, 5 μm, 150×4.6 mm). Compounds were quantified by the external standards method.

A further series has as its system wheat 6-phytase. Put plainly: 6-phytase assay with HPLC analysis. The series is classed as biochemical. The settings on record: 0.27 U enzyme, 1.2 mM substrate, sodium acetate buffer 0.2M, pH 5.2, 50° C. How it is done:
as §1, §2, §3

`O=C(NCCCCCCOC1[C@@H](OP(=O)(O)O)[C@H](OP(=O)(O)O)C(OP(=O)(O)O)[C@H](OP(=O)(O)O)[C@H]1OP(=O)(O)O)c1ccccc1` (stereo partly drawn) [compound 2, 5-O-[6-(benzoylamino)hexyl]-D-myo-inositol-1,2,3,4,6-pentakisphosphate]: the “rate limiting step of the production of compound 7 from compound 2” value in the series on A. ficuum 3-phytase (3-phytase, accumulation of the triphosphate, no significant diphosphate peak) is on record as “conversion of triphosphate to diphosphate”. For the same compound, the “conversion of compound 2 to compound 7 (complete dephosphorylation) in the presence of 3-phytase” value in the series with A. ficuum 3-phytase (after 24 hours of incubation, 0.27 U enzyme, 1.2 mM substrate, glycine-HCl buffer 0.2M, pH 2.6, 37° C., HPLC) is listed as “completely converted”. The “conversion in the enzyme free control” value in the series with A. ficuum 3-phytase (control lacking the phytase enzyme, 24 hours, glycine-HCl buffer pH 2.6, 37° C., HPLC) was “no conversion”. For the same compound, the “amide bond cleavage separating the UV chromophore from the phytic acid core (benzoic acid by HPLC)” value in the series with A. ficuum 3-phytase (in the assay and in the control) is reported as “no benzoic acid could be detected”. For the same compound, in the series on wheat 6-phytase, the “substrate for 6-phytase (sequential dephosphorylation, HPLC)” value was “serves equally well as a substrate”.
